Measurements reported in patent US20040248918A1, “N-phenyl-2-pyrimidine-amine derivatives and process for the preparation thereof” (IL YANG PHARM. CO., LTD., priority 2003, published 2004).
Structures can show the parent of a compound that is named as a salt. One block for each compound: values may come before it.

Legend:
[1] = test system: L1210 cancer cell (leukemia cell line); test: Growth inhibition of L1210 cancer cell (MTT); format: cell-based; conditions: for IC50: Mus musculus
Description: (§1) In the present experiment, the inhibitory activity of the compound of formula (1) was determined against the growth of K562 cancer cell. First, the cells were allowed to stand in RPMI (Roswell Park Memorial Institute)-1640 medium containing 10% (v/v) fetal bovine serum in an incubator of 37° C. and 5% by volume of CO2. The cancer cells (1000 cells) were transferred to a 96-well plate, and the test compound was diluted. The plate was allowed to stand under the above mentioned conditions for 2 days. After this treatment, to the cells was added 0.2% MTT (3-[4,5-dimethylthiazol-2-yl]-2,5-diphenyltetrazolium bromide) solution, and the resulting mixture was allowed to stand under the constant temperature-condition for 4 hours. The supernatant was removed to leave the resulting crystal. DMSO was added to dissolve the crystal, and the absorbance of the solution was measured at 540 nm. IC50 value was calculated using a computer system according to the following formula: […]
In the present experiment, the inhibitory activity of the compound of formula (1) was determined against the growth of L1210 cancer cell. The test was performed according to the same procedure as Experiment 1.

[2] = test system: K562 cancer cell (CML cell line); test: Growth inhibition of K562 cancer cell (MTT); format: cell-based; conditions: for IC50: Homo sapiens, K562, 48 h, K562, 2 days, MTT, read-out: IC50
Description: In the present experiment, the inhibitory activity of the compound of formula (1) was determined against the growth of K562 cancer cell. First, the cells were allowed to stand in RPMI (Roswell Park Memorial Institute)-1640 medium containing 10% (v/v) fetal bovine serum in an incubator of 37° C. and 5% by volume of CO2. The cancer cells (1000 cells) were transferred to a 96-well plate, and the test compound was diluted. The plate was allowed to stand under the above mentioned conditions for 2 days. […] The supernatant was removed to leave the resulting crystal.

[3] = test system: U937 cancer cell (monocyte like leukemia cell line); test: Growth inhibition of U937 cancer cell (MTT); format: cell-based; conditions: Homo sapiens, U-937
Description: as §1
In the present experiment, the inhibitory activity of the compound of formula (1) was determined against the growth of U937 cancer cell. The test was performed according to the same procedure as Experiment 1.

[4] = Comparative pharmacokinetic test in white rats; format: in vivo, white rats (Sprague-Dawley); conditions: male, Sprague-Dawley, plasma, po, rat, 100 mg/kg, P.O.
Description: On the previous day to the test, white rats (Sprague-Dawley, 250˜280 g, male) were put under anesthesia by pentobarbital sodium (50 mg/kg, I.P.). Then, cannula (polyethylene tube; diameter: 0.58mm) was introduced into the rats via the carotid artery and jugular vein, and drawn out to the back. After the operation, the rats were fasted for 16 hours and used for the test. […] Blood was collected in 0, 0.5, 1, 1.5, 2, 2.5, 3, 3.5, 4, 4.5, 5, 6, 8, 10, 12, and 24 hours from the carotid artery. The samples for HPLC analysis were prepared using the collected blood according to the following procedure and were analyzed under the following conditions.
Blood was collected by an amount of 0.5 ml at each prearranged time and centrifuged at 15000 rpm for 7 minutes to separate […] of plasma. In order to remove proteins, MeOH was added in an amount of […], twice as much as the amount of plasma, and the mixture was shaken for 30 minutes. The mixture was centrifuged again at 15000 rpm for 5 minutes to give protein free supernatant, which was then analyzed by HPLC.
Flow rate: 1.0 ml/min, UV detection at 267 nm
Column: 4.6×150 mm, 5C18-AR-II, COSMOSIL
Eluent: Mixture of ion pair sample (420 ml) and MeOH (580 ml)
Ion pair sample: 7.5 g of 1-octanesulfonic acid was dissolved in 800 ml of water. The resulting mixture was adjusted to pH 2.5 using phosphoric acid and diluted with water to 1000 ml volume.
Here, the pharmacokinetic parameters are Tmax (time to reach the maximum blood concentration), Cmax (maximum blood concentration), AUC (area under the curve of time-blood concentration), and T1/2 (half time in blood), and the AUC was calculated under trapezoid rule (see Tables 6, 7 and FIGS. 1, 2).

SMILES: CS(=O)(=O)O.Cc1cc(NC(=O)c2ccc(CNN3CCN(C)CC3)cc2)ccc1Nc1nccc(-c2cccnc2)n1
melting point: 172 to 174 °C

melting point: 169 to 171 °C
SMILES: CC(=O)O.CN1CCN(NCc2ccc(C(=O)Nc3ccc(Nc4nccc(-c5cccnc5)n4)cc3)cc2)CC1

SMILES: CS(=O)(=O)O.Cc1ccc(Nc2nccc(-c3cccnc3)n2)cc1NC(=O)c1ccc(CN2CCCN(C)CC2)cc1 [Example 6, 4-(4-methylhomopiperazin-1-ylmethyl)-N-[2-methyl-5-(4-(pyridin-3-yl)pyrimidin-2-yl)aminophenyl]benzamide methanesulfonate]
Improved activity versus Imatinib mesylate [1]: 10 times
IC50 [1]: 3.24 mg/L
melting point: 168 to 170 °C
IC50 [2]: 20.5 mg/L
IC50 [3]: 5.14 mg/L

SMILES: CS(=O)(=O)O.Cc1ccc(Nc2nccc(-c3cccnc3)n2)cc1NC(=O)c1ccc(CNN2CCN(C)CC2)cc1 [Example 8, 4-(4-methylpiperazin-1-ylaminomethyl)-N-[2-methyl-5-(4-(pyridin-3-yl)pyrimidin-2-yl)aminophenyl]benzamide methanesulfonate]
IC50 [1]: 7.38 mg/L
melting point: 150 to 152 °C
IC50 [2]: 27.6 mg/L
IC50 [3]: 9.44 mg/L

SMILES: CN1CCCN(Cc2ccc(C(=O)Nc3cccc(Nc4nccc(-c5cccnc5)n4)c3)cc2)CC1.CS(=O)(=O)O [Example 12, 4-(4-methylhomopiperazin-1-ylmethyl)-N-[3-(4-(pyridin-3-yl)pyrimidin-2-yl)aminophenyl]benzamide methanesulfonate]
Improved activity versus Imatinib mesylate [1]: 32 times
IC50 [1]: 0.99 mg/L
melting point: 206 to 208 °C
IC50 [2]: 10.2 mg/L
IC50 [3]: 3.41 mg/L

SMILES: CN1CCN(NCc2ccc(C(=O)Nc3cccc(Nc4nccc(-c5cccnc5)n4)c3)cc2)CC1.CS(=O)(=O)O [Example 14, 4-(4-methylpiperazin-1-ylaminomethyl)-N-[3-(4-(pyridin-3-yl)pyrimidin-2-yl)aminophenyl]benzamide methanesulfonate]
melting point: 148 to 150 °C
IC50 [2]: 8.95 mg/L

SMILES: CS(=O)(=O)O.Cc1cc(NC(=O)c2ccc(CN3CCCN(C)CC3)cc2)ccc1Nc1nccc(-c2cccnc2)n1 [Example 16, 4-(4-methylhomopiperazin-1-ylmethyl)-N-[3-methyl-4-(4-(pyridin-3-yl)pyrimidin-2-yl)aminophenyl]benzamide methanesulfonate]
melting point: 166 to 168 °C
IC50 [2]: > 50 mg/L

SMILES: COc1ccc(NC(=O)c2ccc(CN3CCCN(C)CC3)cc2)cc1Nc1nccc(-c2cccnc2)n1.CS(=O)(=O)O [Example 20, 4-(4-methylhomopiperazin-1-ylmethyl)-N-[4-methoxy-3-(4-(pyridin-3-yl)pyrimidin-2-yl)aminophenyl]benzamide methanesulfonate]
IC50 [1]: 4.32 mg/L
melting point: 140 to 142 °C
IC50 [2]: 34.7 mg/L
IC50 [3]: 9.51 mg/L

SMILES: COc1ccc(NC(=O)c2ccc(CNN3CCN(C)CC3)cc2)cc1Nc1nccc(-c2cccnc2)n1.CS(=O)(=O)O [Example 22, 4-(4-methylpiperazin-1-ylaminomethyl)-N-[4-methoxy-3-(4-(pyridin-3-yl)pyrimidin-2-yl)aminophenyl]benzamide methanesulfonate]
IC50 [1]: 4.46 mg/L
melting point: 142 to 144 °C
IC50 [2]: 10 mg/L
IC50 [3]: 8.61 mg/L

SMILES: CN1CCCN(Cc2ccc(C(=O)Nc3cc(Nc4nccc(-c5cccnc5)n4)ccc3F)cc2)CC1.CS(=O)(=O)O [Example 24, 4-(4-methylhomopiperazin-1-ylmethyl)-N-[2-fluoro-5-(4-(pyridin-3-yl)pyrimidin-2-yl)aminophenyl]benzamide methanesulfonate]
melting point: 125 to 127 °C
IC50 [2]: 19.1 mg/L

SMILES: CN1CCN(NCc2ccc(C(=O)Nc3cc(Nc4nccc(-c5cccnc5)n4)ccc3F)cc2)CC1.CS(=O)(=O)O [Example 28, 4-(4-methylpiperazin-1-ylaminomethyl)-N-[2-fluoro-5-(4-(pyridin-3-yl)pyrimidin-2-yl)aminophenyl]benzamide methanesulfonate]
melting point: 142 to 144 °C
IC50 [2]: 8.63 mg/L

SMILES: CN1CCN(NCc2ccc(C(=O)Nc3ccc(Nc4nccc(-c5cccnc5)n4)cc3)cc2)CC1.CS(=O)(=O)O [Example 30, 4-(4-methylpiperazin-1-ylaminomethyl)-N-[4-(4-(pyridin-3-yl)pyrimidin-2-yl)aminophenyl]benzamide methanesulfonate]
melting point: 151 to 153 °C
IC50 [2]: 22.8 mg/L

SMILES: CN1CCN(Cc2ccc(C(=O)Nc3ccc(F)c(Nc4nccc(-c5cccnc5)n4)c3)cc2)CC1.CS(=O)(=O)O [Example 32, 4-(4-methylpiperazin-1-ylmethyl)-N-[4-fluoro-3-(4-(pyridin-3-yl)pyrimidin-2-yl)aminophenyl]benzamide methanesulfonate]
melting point: 172 to 174 °C
IC50 [2]: 8.06 mg/L

SMILES: CN1CCCN(Cc2ccc(C(=O)Nc3ccc(F)c(Nc4nccc(-c5cccnc5)n4)c3)cc2)CC1.CS(=O)(=O)O [Example 34, 4-(4-methylhomopiperazin-1-ylmethyl)-N-[4-fluoro-3-(4-(pyridin-3-yl)pyrimidin-2-yl)aminophenyl]benzamide methanesulfonate]
melting point: 158 to 160 °C
IC50 [2]: 7.17 mg/L

SMILES: CS(=O)(=O)O.O=C(Nc1cccc(Nc2nccc(-c3cccnc3)n2)c1)c1ccc(CN2CCCCC2)cc1 [Example 36, 4-(piperidin-1-ylmethyl)-N-[3-(4-(pyridin-3-yl)pyrimidin-2-yl)aminophenyl]benzamide methanesulfonate]
IC50 [1]: 5.95 mg/L
melting point: 173 to 175 °C
IC50 [2]: 11.3 mg/L
IC50 [3]: 6.91 mg/L

SMILES: CN1CCCN(Cc2ccc(C(=O)Nc3ccc(Nc4nccc(-c5cccnc5)n4)cc3)cc2)CC1.Cl [Example 41, 4-(4-methylhomopiperazin-1-ylmethyl)-N-[4-(4-(pyridin-3-yl)pyrimidin-2-yl)aminophenyl]benzamide hydrochloride]
IC50 [2]: 5.61 mg/L

SMILES: Cc1ccc(NC(=O)c2ccc(CNN3CCN(C)CC3)cc2)cc1Nc1nccc(-c2cccnc2)n1.Cl [Example 42, 4-(4-methylpiperazin-1-ylaminomethyl)-N-[4-methyl-3-(4-(pyridin-3-yl)pyrimidin-2-yl)aminophenyl]benzamide hydrochloride]
IC50 [2]: 0.3 mg/L
Improved activity versus Imatinib mesylate ([2]; K562): much higher activity

melting point: 183 to 185 °C
IC50 [2]: > 50 mg/L
SMILES: CN1CCN(NCc2ccc(C(=O)Nc3ccc(Nc4nccc(-c5cccnc5)n4)cc3)cc2)CC1.Cl [Example 43, 4-(4-methylpiperazin-1-ylaminomethyl)-N-[4-(4-(pyridin-3-yl)pyrimidin-2-yl)aminophenyl]benzamide hydrochloride]

Cmax [4]: 2.72 µg/mL
Tmax [4]: 2.3 h
AUC ([4]; trapezoid rule): 26.5 µg·h/mL
SMILES: Cc1ccc(NC(=O)c2ccc(CN3CCN(C)CC3)cc2)cc1Nc1nccc(-c2cccnc2)n1 [Imatinib mesylate, reference compound]
